Experimental data from patent US20220193209A1, “COMPOSITIONS AND METHODS FOR REACTIVATING LATENT IMMUNODEFICIENCY VIRUS AND/OR TREATING IMMUNODEFICIENCY VIRUS INFECTION” (The J. David Gladstone institutes, a testamentary trust …, priority 2019, published 2022).

System: HIV LTR
Assay: Chromatin immunoprecipitation (ChIP) at the HIV LTR in J-Lat cells
Format: cell-based, HIV-1
Protocol: J-Lat A2 and A72 cells were treated with TNFα (10 ng/ml) for 18 h. Cells were fixed with 1% formaldehyde (v/v) in fixation buffer (1 mM EDTA, 0.5 mM EGTA, 50 mM Hepes, pH 8.0, 100 mM NaCl), and fixation was stopped after 10 min by addition of glycine to 125 mM. The cell membrane was lysed for 15 min on ice (5 mM Pipes, pH 8.0, 85 mM KCl, 0.5% NP40, protease inhibitors). After washing with nuclear swell buffer (25 mM HEPES, pH 7.5, 4 mM KCl, 1 Mm DTT, 0.5% NP-40, 0.5 mM PMSF) and micrococcal nuclease (MNase) digestion buffer (20 mM Tris pH 7.5, 2.5 mM CaCl2), 5 mM NaCl, 1 mM DTT, 0.5% NP-40), the pellet was resuspended in MNase buffer (15 mM Tris-HCl, pH 7.5, 5 mM MgCl2, 1 mM CaCl2), and 25 mM NaCl). Subsequently, samples were incubated with MNase (New England Biolabs) for 10 min at RT. The reaction was quenched with 0.5 M EDTA and incubated on ice for 5 min. Cells were lysed (1% SDS, 10 mM EDTA, 50 mM Tris-HCl, pH 8.1, protease inhibitors), and chromatin DNA was sheared to 200-1000-bp average size through sonication (Ultrasonic Processor CP-130, Cole Parmer). Cellular debris was pelleted, and the supernatant was recovered. Protein A/G Sepharose beads were blocked with single-stranded salmon sperm DNA and BSA, washed and resuspended in immunoprecipitation buffer. Blocked protein A/G Sepharose beads were added to the digested chromatin fractions and rotated at 4° C. for 2 h to preclear chromatin. Lysates were incubated overnight at 4° C. with 5 μg of FOXO1, RelA, histone H4, H4K20me1, H4K20me2, H4K20me3 antibodies, or IgG control. After incubation with protein A/G agarose beads for 2 h and washing three times with low salt buffer (0.1% SDS, 1% Triton X-100, 2 mM EDTA, 20 mM Tris-HCl, pH 8.1, 150 mM NaCl), one time with high salt buffer (0.1% SDS, 1% Triton X-100, 2 mM EDTA, 20 mM Tris-HCl, pH 8.1, 500 mM NaCl) and twice with TE-buffer (1 mM EDTA, 10 mM Tris-HCl, pH 8.1), chromatin was eluted and recovered with Agencourt AMPure XP beads (Beckman Coulter). Bound chromatin and input DNA were treated with RNase H (New England Biolabs) and Proteinase K (Sigma-Aldrich) at 37° C. for 30 min. Immunoprecipitated chromatin was quantified by real-time PCR using the Maxima SYBR Green qPCR Master Mix (Thermo Scientific) and the ABI 7700 Sequence Detection System (Applied Biosystems). The SDS 2.4 software (Applied Biosystems) was used for analysis. The specificity of each PCR reaction was confirmed by melting curve analysis using the Dissociation Curve software (Applied Biosystems). All chromatin immunoprecipitations and qPCRs were repeated at least three times, and representative results were shown.
Because ATF4 can be recruited to the HIV LTR (Jiang, G. et al. Downloaded from. MBio 8, 1518-1534 (2018)) and the related human T-cell leukemia virus type 1 (HTLV-1) Reddy, T. et al. Oncogene 14, 2785-2792 (1997)), chromatin immunoprecipitation (ChIP) experiments were performed to test whether ATF4 binds the HIV LTR in response to FOXO1 inhibition. While low levels of ATF4 bound HIV LTR chromatin in untreated J-Lat cells, its recruitment was 3-fold enriched after AS1842856 treatment (FIG. 9, Panel A). […] The nuclear factor of activated T cells (NFAT) can occupy the NF-κB binding sites in the HIV LTR, and is activated through calcium mobilization after T cell activation rather than protein kinase C activation as for NF-κB. […]

CCn1cc(C(=O)O)c(=O)c2c(N)c(F)c(NC3CCCCC3)cc21 [AS1842856, 5-amino-7-(cyclohexylamino)-1-ethyl-6-fluoro-4-oxo-1,4-dihydro-quinoline-3-carboxylic acid]
NFAT at the HIV LTR: markedly enriched
RNA polymerase II recruitment to the HIV promoter: marked increase
RelA recruitment to the HIV LTR: not recruited
ATF4 recruitment to HIV LTR chromatin (1000 nM vs untreated): 3 fold
